This note sets out measurements from patent US9320727B2, “Combinations of SGLT 2 inhibitors and antihypertensive drugs” (TAISHO PHARMACEUTICAL CO., LTD, priority 2012, dated 2016).

SMILES strings stand for the structures.

Format in all cases: in vivo, rat
In test [1] the test system is T2DN rats. Kind of test: Diabetic nephropathy model (T2DN rats): glomerular injury score, Masson's trichrome stain. To be noted: compound A 0.02% in mixed diet, lisinopril 10 mg/kg/day in drinking water, alone or combined, three months, grade 0-4, 30 glomeruli, FIG. 2. The procedure: (§1) The effect of compound A combined with ACE inhibitor in rats as a diabetic nephropathy model.
(§2) The test was conducted with rats (T2DN rats) that were an inbred line of Goto-Kakizaki (GK) rats with a manifestation of type II diabetes mellitus and which were in an advanced stage of kidney tissue injury resulting from a long-continued diabetic condition. Rats in groups each consisting of 8-9 animals (aged 14 months on average) were given repeated doses of compound A (0.02% in mixed diet) and the ACE inhibitor lisinopril (10 mg/kg/day in drinking water), either independently or in combination, for three months. A group of rats receiving only a diet containing no compound A were pathologic controls. Before and one month after the dosing, blood pressure measurement was conducted by the tail cuff method using a noninvasive automatic hemodynamometer. After the repeated dosing, the kidneys were removed from each rat under anesthetization with ketamine and thiobutabarbital and fixed in 10% neutral buffered formalin. Thin slices of the kidneys were prepared and subjected to Masson's trichrome stain. After masking the tissue specimens, thirty glomeruli were extracted from each specimen.

Test [2] relates to T2DN rats. Nature of the test: Diabetic nephropathy model (T2DN rats): renocortical (interstitial) fibrosis area by image analyzer. The following applies: compound A 0.02% in mixed diet, lisinopril 10 mg/kg/day in drinking water, alone or combined, three months, FIG. 3. The procedure:
as §1, §2
To evaluate the morbidity of interstitial fibrosis, the fibrotic area percentage of 10 regions per specimen was calculated on an image analyzer.

In test [3] the test system is T2DN rats. Nature of the test: Diabetic nephropathy model (T2DN rats): blood pressure by tail cuff method. To be noted: compound A 0.02% in mixed diet, lisinopril 10 mg/kg/day in drinking water, alone or combined, before and one month after dosing, FIG. 1. The protocol:
as §1, §2
Blood pressure was expressed by the mean blood pressure as calculated from systolic and diastolic pressures ((systolic pressure−diastolic pressure)/3+diastolic pressure)).

In another test the test system is Goto-Kakizaki (GK) rats. Kind of test: Diabetic animal model (GK rats): systolic blood pressure by tail cuff method, crossover. To be noted: GK rats on high-glucose diet; compound A in mixed diet, valsartan single oral dose, alone or combined; 1, 2, 4, 6 hours after administration; FIG. 4. From the text:
The effect of compound A combined with angiotensin II receptor blocker in rats as a diabetic model. Goto-Kakizaki (GK) rats as model animals spontaneously manifesting non-obese diabetes mellitus (Japan SLC, Inc.) were fed a high-glucose diet containing compound A. During the feeding of compound A in a mixed diet, a vehicle or an angiotensin II receptor blocker was orally administered in a single dose and the effects of the two drugs, administered either independently or in combination, on blood pressure were studied by the crossover method. The systolic blood pressure was measured by the tail cuff method using a non-heated, noninvasive hemodynamometer immediately before the oral administration of the angiotensin II receptor blocker and 1, 2, 4, and 6 hours after such administration.

Turning to `CCOc1ccc(Cc2cc([C@@H]3S[C@H](CO)[C@@H](O)[C@H](O)[C@H]3O)c(OC)cc2C)cc1` [Compound A, (1S)-1,5-anhydro-1-[3-(4-ethoxybenzyl)-6-methoxy-4-methylphenyl]-1-thio-D-glucitol], in the test with T2DN rats [1], the “glomerular injury score (improvement of scores of glomerular damage)” value is listed as “effective in improving scores of glomerular damage”. Also, the “renocortical fibrosis score (area of kidney interstitial fibrosis)” value in the test with T2DN rats [2] is “effective in ameliorating kidney tissue damage”. In addition, in the test on T2DN rats [3], the “blood pressure lowering action (mean blood pressure)” value is “little blood pressure lowering action”. For the same molecule, the “action for lowering the systolic blood pressure” value in the test on Goto-Kakizaki (GK) rats was “little blood lowering action”.
Consider `NCCCC[C@H](N[C@@H](CCc1ccccc1)C(=O)O)C(=O)N1CCC[C@H]1C(=O)O` [Lisinopril, lisinopril], for which the “glomerular injury score (improvement of scores of glomerular damage)” value with T2DN rats [1] is “effective in improving scores of glomerular damage”. Moreover, the “renocortical fibrosis score (area of kidney interstitial fibrosis)” value with T2DN rats [2] is given as “no improvement in the area of interstitial fibrosis”. Moreover, the “blood pressure lowering action (mean blood pressure)” value with T2DN rats [3] is recorded as “a certain level of blood pressure lowering action”.
For `CCCCC(=O)N(Cc1ccc(-c2ccccc2-c2nnn[nH]2)cc1)[C@H](C(=O)O)C(C)C` [Valsartan, valsartan], the “action for lowering the systolic blood pressure” value in the test on Goto-Kakizaki (GK) rats was “a certain level of action for lowering the systolic blood pressure”.
